Reference: ChEMBL document CHEMBL4673296 (J Med Chem, 2020)
The source made the active and inactive calls. The rule behind the calls is not given here.

Legend:
[1] = molecular target: T1, Serine/threonine-protein kinase ULK1 (Homo sapiens, UniProt O75385); experiment: Inhibition of recombinant human ULK1 (1-649) expressed in Sf9 cells using myelin basic protein as substrate by ADP-glo assay; details: sf9
T1 sequence (O75385 whole entry): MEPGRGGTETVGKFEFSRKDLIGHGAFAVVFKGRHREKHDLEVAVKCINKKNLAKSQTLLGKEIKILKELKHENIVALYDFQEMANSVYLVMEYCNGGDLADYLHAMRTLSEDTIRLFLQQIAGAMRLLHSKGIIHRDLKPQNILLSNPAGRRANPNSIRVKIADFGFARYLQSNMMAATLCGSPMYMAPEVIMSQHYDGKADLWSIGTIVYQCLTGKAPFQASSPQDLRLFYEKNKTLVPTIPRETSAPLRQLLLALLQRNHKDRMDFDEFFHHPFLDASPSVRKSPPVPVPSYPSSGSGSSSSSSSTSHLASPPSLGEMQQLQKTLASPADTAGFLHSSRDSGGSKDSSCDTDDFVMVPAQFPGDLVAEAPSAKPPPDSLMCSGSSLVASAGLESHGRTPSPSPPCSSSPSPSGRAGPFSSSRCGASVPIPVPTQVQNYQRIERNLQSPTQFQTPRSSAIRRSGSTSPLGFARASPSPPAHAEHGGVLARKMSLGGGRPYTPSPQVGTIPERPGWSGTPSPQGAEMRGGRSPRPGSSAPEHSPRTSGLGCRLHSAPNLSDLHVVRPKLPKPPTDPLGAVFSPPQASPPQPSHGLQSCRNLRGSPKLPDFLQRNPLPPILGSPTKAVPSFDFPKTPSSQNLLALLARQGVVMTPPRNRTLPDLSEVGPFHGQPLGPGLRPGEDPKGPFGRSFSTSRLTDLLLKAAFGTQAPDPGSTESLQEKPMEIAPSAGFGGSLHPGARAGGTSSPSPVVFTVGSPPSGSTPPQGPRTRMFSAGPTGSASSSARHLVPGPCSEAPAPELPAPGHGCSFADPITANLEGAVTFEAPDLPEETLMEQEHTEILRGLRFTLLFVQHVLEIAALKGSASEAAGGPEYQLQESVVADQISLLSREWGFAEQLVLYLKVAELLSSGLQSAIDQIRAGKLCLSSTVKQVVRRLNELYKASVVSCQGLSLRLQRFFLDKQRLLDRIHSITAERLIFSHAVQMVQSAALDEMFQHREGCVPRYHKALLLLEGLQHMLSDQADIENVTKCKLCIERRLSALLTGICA

[2] = molecular target: T2, Serine/threonine-protein kinase ULK1 (Homo sapiens) (UniProt O75385); experiment: Inhibition of Myc-tagged ULK1 (unknown origin) expressed in HEK293T cells cotransfected with wild-type Flag tagged Vps34 assessed as decrease in pVPS34 Ser249 at 10 uM measured after 1 hr by Western blot analysis relative to control; type: cell-based
T2 sequence (whole entry): T1 sequence (O75385 whole entry)

[3] = Tmax in C57BL/6J mouse at 30 mg/kg, po measured upto 24 hrs by LC-MS/MS analysis; type: ADME, organism-based; details: in vivo
[4] = Cmax in C57BL/6J mouse at 30 mg/kg, po measured upto 24 hrs by LC-MS/MS analysis; type: ADME, organism-based; parameters: route oral, dose 30 mg/kg, time <=24; details: in vivo
Mus musculus = experiment: Decrease in total ATG13 level in liver lysate of C57BL/6J mouse at 10 mg/kg, po measured after 2 hrs by Western blot analysis; type: functional, organism-based
MDA-MB-468 [5] = experiment: Induction of apoptosis in human MDA-MB-468 cells assessed as viable cells at 10 uM measured after 18 hrs in normal growth media by AnnexinV/7-AAD staining based flow cytometric analysis (reference value: 87.4%); type: functional; details: read-out: Activity
MDA-MB-468 [6] = experiment: Induction of apoptosis in human MDA-MB-468 cells assessed as early apoptotic cells at 10 uM measured after 18 hrs in normal growth media by AnnexinV/7-AAD staining based flow cytometric analysis (reference value: 5.6%); type: functional
MDA-MB-468 [7] = experiment: Induction of apoptosis in human MDA-MB-468 cells assessed as late apoptotic cells at 10 uM measured after 18 hrs in normal growth media by AnnexinV/7-AAD staining based flow cytometric analysis (reference value: 6.8%); type: functional
MDA-MB-468 [8] = experiment: Induction of apoptosis in human MDA-MB-468 cells assessed as early apoptotic cells at 10 uM measured after 18 hrs in low-glucose, amino acid-free Earles balanced salt solution (EBSS) media by AnnexinV/7-AAD staining based flow cytometric analysis (reference value: 5.6%); type: functional
MDA-MB-468 [9] = experiment: Induction of apoptosis in human MDA-MB-468 cells assessed as necrotic cells at 10 uM measured after 18 hrs in low-glucose, amino acid-free Earles balanced salt solution (EBSS) media by AnnexinV/7-AAD staining based flow cytometric analysis (reference value: 0.1%); type: functional
[10] = Inhibition of starvation-induced autophagic flux in human MDA-MB-468 cells expressing tandem-labelled mCherryEGFP-LC3 chimeric protein at 10 uM measured after 18 hrs in EBSS media by flow cytometry (Rvb >90%); type: functional
MDA-MB-468 [11] = experiment: Inhibition of olaparib-induced autophagic flux in human MDA-MB-468 cells expressing tandem-labelled mCherryEGFP-LC3 chimeric protein at 10 uM measured after 48 hrs by flow cytometry; type: functional, cell-based
MDA-MB-468 [12] = experiment: cells; details: Homo sapiens, MDA-MB-468, 72 h
Description: Cytotoxicity against human MDA-MB-468 cells measured after 72 hrs by Celltiter-Glo assay

## COc1ccc(Nc2ncc(C(F)(F)F)c(NC3CC3)n2)cc1OC
[1]
  IC50: 13 nM
[2]
  inhibition: 90%
[3]
  Tmax: 1 h
[4]
  Cmax: 990 nM
Mus musculus
  inhibition: Active
MDA-MB-468 [5]
  viability at 10 µM: 64.1%
MDA-MB-468 [6]
  Activity: 28.9%
MDA-MB-468 [7]
  Activity: 6.8%
MDA-MB-468 [8]
  Activity: 42.9%
MDA-MB-468 [9]
  Activity: 0.1%
[10]
  inhibition at 10 µM: 60%
MDA-MB-468 [11]
  inhibition: Active
MDA-MB-468 [12]
  IC50: 300 nM
